# Results from patent US11021493B2, “1,4-thiazine dioxide and 1,2,4-thiadiazine dioxide derivatives as beta-secretase inhibitors and methods of use” (AMGEN INC., priority 2016, dated 2021).
# Assays:
# BACE1 [1] = target: T1, BACE1 (Homo sapiens (Human), UniProt P56817); test: In vitro enzymatic BACE1 FRET assay; type: biochemical; conditions: read-out: BACE1 Enzyme IC50
# Target sequence in this assay (P56817 46-501): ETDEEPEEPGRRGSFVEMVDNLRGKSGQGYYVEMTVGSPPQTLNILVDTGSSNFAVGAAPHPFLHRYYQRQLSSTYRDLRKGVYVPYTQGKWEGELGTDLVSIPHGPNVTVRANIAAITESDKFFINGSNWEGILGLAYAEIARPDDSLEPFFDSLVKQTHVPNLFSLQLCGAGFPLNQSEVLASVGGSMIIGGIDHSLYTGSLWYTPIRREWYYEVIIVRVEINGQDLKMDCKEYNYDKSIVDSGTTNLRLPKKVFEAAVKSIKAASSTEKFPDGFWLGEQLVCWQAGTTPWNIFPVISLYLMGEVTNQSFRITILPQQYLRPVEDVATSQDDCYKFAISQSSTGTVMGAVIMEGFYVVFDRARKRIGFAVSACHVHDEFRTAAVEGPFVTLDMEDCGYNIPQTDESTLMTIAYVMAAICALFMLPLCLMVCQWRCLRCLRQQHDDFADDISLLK
# BACE1 [2] = target: T1, BACE1; test: In vitro BACE1 cell-based assay (Aβ40 in conditioned medium of cells stably expressing APP, HTRF)
# Target sequence in this assay (P56817 46-501, species assumed): as the sequence (P56817 46-501) above
# human recombinant BACE2 = human recombinant BACE2 (Homo sapiens (Human), UniProt Q9Y5Z0); test: In vitro enzymatic BACE2 FRET assay; type: biochemical; conditions: read-out: BACE2 Enzyme IC50
# Cathepsin D (CatD) = Cathepsin D (CatD) (Homo sapiens (Human), UniProt P07339); test: In vitro enzymatic Cathepsin D (CatD) FRET assay; type: biochemical; conditions: read-out: Cat D Enzyme IC50
# [3] = Aβ40 in conditioned media after 24 h incubation
# human recombinant BACE2, sequence (Q9Y5Z0 63-518): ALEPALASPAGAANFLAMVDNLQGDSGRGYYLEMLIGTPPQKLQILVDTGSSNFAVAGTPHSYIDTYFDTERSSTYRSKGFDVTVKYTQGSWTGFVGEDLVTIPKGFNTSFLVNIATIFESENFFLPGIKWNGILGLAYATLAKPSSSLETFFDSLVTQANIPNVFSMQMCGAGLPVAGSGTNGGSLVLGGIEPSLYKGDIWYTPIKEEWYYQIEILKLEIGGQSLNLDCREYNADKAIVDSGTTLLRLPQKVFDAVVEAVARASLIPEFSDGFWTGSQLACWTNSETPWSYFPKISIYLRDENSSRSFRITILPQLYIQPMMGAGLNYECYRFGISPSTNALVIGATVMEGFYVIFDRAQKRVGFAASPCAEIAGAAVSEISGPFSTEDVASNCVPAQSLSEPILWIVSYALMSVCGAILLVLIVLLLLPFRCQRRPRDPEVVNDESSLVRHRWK
# Cathepsin D (CatD), sequence (P07339 65-412, species assumed): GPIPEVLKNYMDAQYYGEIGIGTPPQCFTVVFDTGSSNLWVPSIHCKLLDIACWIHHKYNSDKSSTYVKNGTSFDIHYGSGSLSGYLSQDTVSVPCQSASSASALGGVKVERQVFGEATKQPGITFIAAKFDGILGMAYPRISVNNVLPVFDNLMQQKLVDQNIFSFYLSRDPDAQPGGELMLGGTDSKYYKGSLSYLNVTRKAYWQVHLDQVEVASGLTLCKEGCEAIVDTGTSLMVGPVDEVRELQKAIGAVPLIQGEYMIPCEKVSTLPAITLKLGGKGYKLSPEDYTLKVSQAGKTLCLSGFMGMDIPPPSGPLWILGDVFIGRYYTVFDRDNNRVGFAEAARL
IC50 (BACE1 [1]) [nM],IC50 (BACE1 [2]; [3]) [nM],IC50 (human recombinant BACE2) [nM],IC50 (Cathepsin D (CatD)) [nM],Structure (SMILES),IC50 (BACE1 [2]) [nM]
583,1080,157,56100,"CN1C(N)=N[C@](C)(c2cc(/C=C(\F)c3ccc4c(c3)OCCO4)ccc2F)CS1(=O)=O [Example 196, (R,Z)-3-amino-5-(5-(2-(2,3-dihydrobenzo[b][1,4]dioxin-6-yl)-2-fluorovinyl)-2-fluorophenyl)-2,5-dimethyl-5,6-dihydro-2H-1,2,4-thiadiazine 1,1-dioxide]",–
98,191,180,> 400000,"COc1cnc(/C(F)=C/c2ccc(F)c([C@@]3(C)N=C(N)[C@@]4(CF)CC[C@@H]3S4(=O)=O)c2)cn1 [Example 121, (1R,4R,5S)-2-amino-4-(2-fluoro-5-((Z)-2-fluoro-2-(5-methoxypyrazin-2-yl)vinyl)phenyl)-1-(fluoromethyl)-4-methyl-8-thia-3-azabicyclo[3.2.1]oct-2-ene 8,8-dioxide]",–
1,14,9,55900,"Cc1cc(C#N)cnc1/C(F)=C/c1cc(F)c(F)c([C@]2(C)CS(=O)(=O)N(C)C(N)=N2)c1 [Example 275, (R,Z)-6-(2-(3-(3-amino-2,5-dimethyl-1,1-dioxido-5,6-dihydro-2H-1,2,4-thiadiazin-5-yl)-4,5-difluorophenyl)-1-fluorovinyl)-5-methylnicotinonitrile]",–
9,288,233,26800,"CCC#C[C@H](C)Oc1cnc(/C(F)=C/c2ccc(F)c([C@]3(C)CS(=O)(=O)C(C)(C)C(N)=N3)c2)cn1 (single isomer, unassigned) [Example 217]",–
39,134,161,218000,"CC1(C)C(N)=N[C@](C)(c2cc(/C=C(\F)c3cnc(OCC(F)(F)F)cn3)ccc2F)CS1(=O)=O [Example 124, (R,Z)-5-amino-3-(2-fluoro-5-(2-fluoro-2-(5-(2,2,2-trifluoroethoxy)pyrazin-2-yl)vinyl)phenyl)-3,6,6-trimethyl-3,6-dihydro-2H-1,4-thiazine 1,1-dioxide]",–
349,1820,333,59500,"CC1(C)C(N)=N[C@](C)(c2cc(/C=C(\F)c3cnc(Oc4ccccc4)cn3)ccc2F)CS1(=O)=O [Example 211, (R,Z)-5-amino-3-(2-fluoro-5-(2-fluoro-2-(5-phenoxypyrazin-2-yl)vinyl)phenyl)-3,6,6-trimethyl-3,6-dihydro-2H-1,4-thiazine 1,1-dioxide]",–
628,5360,364,29900,"CCC#C[C@@H](C)Oc1cnc(/C(F)=C/c2ccc(F)c([C@]3(C)CS(=O)(=O)C(C)(C)C(N)=N3)c2)cn1 (single isomer, unassigned) [Example 216]",–
35,706,124,> 400000,"C[C@]1(c2cc(/C=C(\F)c3cnc(OCC4CC4)cn3)ccc2F)N=C(N)[C@@]2(CF)CC[C@@H]1S2(=O)=O [Example 118, (1R,4R,5S)-2-amino-4-(5-((Z)-2-(5-(cyclopropylmethoxy)pyrazin-2-yl)-2-fluorovinyl)-2-fluorophenyl)-1-(fluoromethyl)-4-methyl-8-thia-3-azabicyclo[3.2.1]oct-2-ene 8,8-dioxide]",–
189,133,190,237000,"COc1cnc(/C(F)=C/c2ccc(F)c([C@]3(C)CS(=O)(=O)C(C)(C)C(N)=N3)c2)cn1 [Example 263, (R,Z)-5-amino-3-(2-fluoro-5-(2-fluoro-2-(5-methoxypyrazin-2-yl)vinyl)phenyl)-3,6,6-trimethyl-3,6-dihydro-2H-1,4-thiazine 1,1-dioxide]",–
225,5940,851,303000,"CC1(C)C(N)=N[C@](C)(c2cc(/C=C(\F)c3cc4c(cn3)OCCO4)ccc2F)[C@H](F)S1(=O)=O (single isomer, unassigned) [Example 214]",–
208,600,101,61400,"C#C[C@@H](CC)Oc1cnc(/C(F)=C/c2ccc(F)c([C@]3(C)CS(=O)(=O)C(C)(C)C(N)=N3)c2)cn1 (single isomer, unassigned) [Example 177]",–
84,97,94,> 4940,"CN1C(N)=N[C@](C)(c2cc(/C=C(\F)c3cc(C#N)c(Cl)cn3)ccc2F)CS1(=O)=O [Example 231, (R,Z)-2-(2-(3-(3-amino-2,5-dimethyl-1,1-dioxido-5,6-dihydro-2H-1,2,4-thiadiazin-5-yl)-4-fluorophenyl)-1-fluorovinyl)-5-chloroisonicotinonitrile]",–
133,1120,2880,223000,"CN1C(N)=N[C@](C)(c2cc(/C=C(\F)c3cnc(OCC(F)(F)F)cn3)ccc2F)C2(CC2)S1(=O)=O [Example 163, (8R)-8-(2-fluoro-5-((Z)-2-fluoro-2-(5-(2,2,2-trifluoroethoxy)-2-pyrazinyl)ethenyl)phenyl)-5,8-dimethyl-4-thia-5,7-diazaspiro[2.5]oct-6-en-6-amine 4,4-dioxide]",–
3,1,45,–,"CN1C(N)=N[C@](C)(c2cc(/C=C(\F)c3cnc(OCc4ncco4)cn3)ccc2F)CS1(=O)=O [Example 116, (R,Z)-3-amino-5-(2-fluoro-5-(2-fluoro-2-(5-(oxazol-2-ylmethoxy)pyrazin-2-yl)vinyl)phenyl)-2,5-dimethyl-5,6-dihydro-2H-1,2,4-thiadiazine 1,1-dioxide]",–

Structure (SMILES),IC50 (BACE1 [1]) [nM],IC50 (BACE1 [2]; [3]) [nM],IC50 (human recombinant BACE2) [nM],IC50 (Cathepsin D (CatD)) [nM],IC50 (BACE1 [2]) [nM]
"CC1(C)C(N)=N[C@](C)(c2cc(/C=C(\F)c3cnc(Cl)cn3)cnc2F)CS1(=O)=O [Example 203, (R,Z)-5-amino-3-(5-(2-(5-chloropyrazin-2-yl)-2-fluorovinyl)-2-fluoropyridin-3-yl)-3,6,6-trimethyl-3,6-dihydro-2H-1,4-thiazine 1,1-dioxide]",125,196,56,85400,–
"Cc1cc(COc2cnc(/C(F)=C/c3cc(F)c(F)c([C@]4(C)CS(=O)(=O)N(C)C(N)=N4)c3)cn2)on1 [Example 221, (R,Z)-3-amino-5-(2,3-difluoro-5-(2-fluoro-2-(5-((3-methylisoxazol-5-yl)methoxy)pyrazin-2-yl)vinyl)phenyl)-2,5-dimethyl-5,6-dihydro-2H-1,2,4-thiadiazine 1,1-dioxide]",38,–,197,–,215
"C[C@]1(c2cc(/C=C(\F)c3ccc(Br)cn3)ccc2F)N=C(N)C2(CF)CC[C@@H]1S2(=O)=O (stereo in doubt) [Example 101, (1R,4R,5S)-2-amino-4-(5-((Z)-2-(5-bromopyridin-2-yl)-2-fluorovinyl)-2-fluorophenyl)-1-(fluoromethyl)-4-methyl-8-thia-3-azabicyclo[3.2.1]oct-2-ene 8,8-dioxide]",5,79,13,–,–
"C#CCOc1cnc(/C(F)=C/c2ccc(F)c([C@@]3(C)N=C(N)C(C)(C)S(=O)(=O)[C@H]3F)c2)cn1 (single isomer, unassigned) [Example 200]",18,–,86,–,206
"CC1(C)C(N)=N[C@](C)(c2cc(/C=C(\F)c3cnc(Cl)cn3)cc(F)c2F)CS1(=O)=O [Example 193, (R,Z)-5-amino-3-(5-(2-(5-chloropyrazin-2-yl)-2-fluorovinyl)-2,3-difluorophenyl)-3,6,6-trimethyl-3,6-dihydro-2H-1,4-thiazine 1,1-dioxide]",121,833,–,82300,–
"C#CCOc1cnc(/C(F)=C/c2ccc(F)c([C@]3(C)CS(=O)(=O)N(C)C(N)=N3)c2)cn1 [Example 112, (R,Z)-3-amino-5-(2-fluoro-5-(2-fluoro-2-(5-(prop-2-yn-1-yloxy)pyrazin-2-yl)vinyl)phenyl)-2,5-dimethyl-5,6-dihydro-2H-1,2,4-thiadiazine 1,1-dioxide]",3,–,–,35800,8
"C#CCOc1cnc(/C(F)=C/c2ccc(F)c([C@@]3(C)N=C(N)C(C)(C)S(=O)(=O)C3(F)F)c2)cn1 [Example 202, (R,Z)-5-amino-2,2-difluoro-3-(2-fluoro-5-(2-fluoro-2-(5-(prop-2-yn-1-yloxy)pyrazin-2-yl)vinyl)phenyl)-3,6,6-trimethyl-3,6-dihydro-2H-1,4-thiazine 1,1-dioxide]",166,–,870,–,9570
"C#CCOc1cnc(/C(F)=C/c2ccc(F)c([C@@]3(C)N=C(N)C(C)(C)S(=O)(=O)[C@@H]3F)c2)cn1 (single isomer, unassigned) [Example 201]",6,–,82,–,214
"CN1C(N)=N[C@](C)(c2cc(/C=C(\F)c3cnc(OCC#CCO)cn3)ccc2F)CS1(=O)=O [Example 252, (R,Z)-3-amino-5-(2-fluoro-5-(2-fluoro-2-(5-((4-hydroxybut-2-yn-1-yl)oxy)pyrazin-2-yl)vinyl)phenyl)-2,5-dimethyl-5,6-dihydro-2H-1,2,4-thiadiazine 1,1-dioxide]",10,7,56,–,–
"C[C@]1(c2cc(/C=C(/F)C3CCCO3)ccc2F)N=C(N)[C@@]2(CF)CC[C@@H]1S2(=O)=O (stereo partly drawn) [Example 278, (1R,4R,5S)-2-amino-4-(2-fluoro-5-((E)-2-fluoro-2-(tetrahydrofuran-2-yl)vinyl)phenyl)-1-(fluoromethyl)-4-methyl-8-thia-3-azabicyclo[3.2.1]oct-2-ene 8,8-dioxide]",1110,1980,–,–,–
